# Measurements from US20240116985A1, “STAPLED PEPTIDES AND METHODS THEREOF” (priority 2020, published 2024).
# Read-outs that look alike come from different tables or passages of the source.
# How the values were obtained:
# CHI Log D procedure = type: physicochemical; conditions: for CHI Log D: pH 7.4; for chromatographic logD: pH 7.4, CHI Log D
# [1] = biological target: T1, full-length beta-Catenin (Uniprot ID P35222) (Homo sapiens, UniProt P35222); test: Fluorescence polarization IC50 (beta-catenin / 5FAM-TCF4 10-53 competition); type: binding
# T1 construct: 10 nM full-length beta-Catenin (Uniprot ID P35222)
# T1 sequence (P35222 1-781): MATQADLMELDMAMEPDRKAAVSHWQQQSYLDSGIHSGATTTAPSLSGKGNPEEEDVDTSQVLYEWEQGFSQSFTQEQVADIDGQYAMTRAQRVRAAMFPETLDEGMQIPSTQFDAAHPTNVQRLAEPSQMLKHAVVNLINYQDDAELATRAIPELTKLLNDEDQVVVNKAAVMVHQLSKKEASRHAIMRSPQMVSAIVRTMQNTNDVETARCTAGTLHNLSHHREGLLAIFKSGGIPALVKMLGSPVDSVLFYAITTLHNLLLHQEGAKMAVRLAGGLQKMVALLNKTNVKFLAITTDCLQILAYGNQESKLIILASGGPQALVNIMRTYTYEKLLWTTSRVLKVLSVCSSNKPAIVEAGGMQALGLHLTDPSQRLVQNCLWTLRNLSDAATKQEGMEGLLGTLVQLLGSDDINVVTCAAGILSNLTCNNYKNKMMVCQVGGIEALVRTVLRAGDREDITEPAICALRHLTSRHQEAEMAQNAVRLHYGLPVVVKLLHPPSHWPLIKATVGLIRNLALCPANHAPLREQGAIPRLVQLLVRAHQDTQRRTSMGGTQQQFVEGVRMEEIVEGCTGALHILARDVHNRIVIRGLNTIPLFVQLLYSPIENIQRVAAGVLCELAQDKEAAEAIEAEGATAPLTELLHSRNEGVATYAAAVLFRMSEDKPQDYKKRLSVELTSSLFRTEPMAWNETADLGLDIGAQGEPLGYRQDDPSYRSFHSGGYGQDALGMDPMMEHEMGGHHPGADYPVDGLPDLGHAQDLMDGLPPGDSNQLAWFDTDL
# Solubility in PBS = type: physicochemical
# Procedure, shortened: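 PBS sample ultracentrifuged; supernatant run on HPLC vs. 50 μM peptide in DMSO standard. Solubility = (PBS peak area / DMSO peak area) × 50 uM.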
# [2] = fluorescence polarization, read-out: beta-Catenin FP IC50
CHI Log D (CHI Log D procedure),"IC50 [1, 2]",IC50 ([1]; read-out: FP EC50),Solubility (Solubility in PBS),chromatographic logD (CHI Log D procedure),Solubility (Solubility in PBS; Solubility (uM)),SMILES
2.241,44 nM,44 nM,50 µM,,,"CCC[C@@H]1NC(=O)[C@H](CC(=O)O)NC(=O)[C@]2(CC=CCCCC3(CCCC=CCCCCCC[C@@](C)(C(=O)N[C@@H](Cc4ccccc4)C(=O)N[C@@H](Cc4csc5ccccc45)C(=O)N[C@@H](CCC(N)=O)C(N)=O)NC(=O)[C@H](CCC(N)=O)NC(=O)[C@H](Cc4ccccc4)NC(=O)[C@H](C)NC(=O)[C@H](C)NC(=O)[C@H](CCC(=O)O)NC(=O)[C@H](CC(=O)O)NC3=O)NC1=O)CCCN2C(C)=O (stereo partly drawn) [I-523, Ac-PL3-Asp-Nva-B5-Asp-Glu-Ala-Ala-Phe-Gln-S8-Phe-BztA-Gln-NH2]"
,2550 nM,,50 µM,1.89,,"CC(=O)N1CCC[C@]12CC=CCCCC1(CCCC=CCCCCCC[C@@](C)(C(=O)N[C@@H](Cc3ccccc3)C(=O)N[C@@H](Cc3csc4ccccc34)C(=O)N[C@@H](CCC(N)=O)C(N)=O)NC(=O)[C@H](CC(N)=O)NC(=O)[C@H](Cc3cscn3)NC(=O)[C@H](C)NC(=O)[C@H](C)NC(=O)[C@H](CCC(=O)O)NC(=O)[C@H](CC(=O)O)NC1=O)NC(=O)[C@H](C)NC(=O)[C@H](CC(=O)O)NC2=O (stereo partly drawn) [I-524, Ac-PL3-Asp-Ala-B5-Asp-Glu-Ala-Ala-4Thz-Asn-S8-Phe-BztA-Gln-NH2]"
,155 nM,,,2.29,44 µM,"CC(=O)N1CCC[C@]12CC=CCCCC1(CCCC=CCCCCCC[C@@](C)(C(=O)N[C@@H](Cc3ccccc3)C(=O)N[C@@H](Cc3csc4ccccc34)C(=O)N[C@@H](CCC(N)=O)C(N)=O)NC(=O)[C@H](CC(N)=O)NC(=O)[C@H](Cc3ccccc3)NC(=O)[C@H](C)NC(=O)[C@H](C)NC(=O)[C@H](CNS(C)(=O)=O)NC(=O)[C@H](CC(=O)O)NC1=O)NC(=O)[C@H](C)NC(=O)[C@H](CC(=O)O)NC2=O (stereo partly drawn) [I-533, Ac-PL3-Asp-Ala-B5-Asp-[MeSO2]Dap-Ala-Ala-Phe-Asn-S8-Phe-BztA-Gln-NH2]"
,5000 nM,,,2.43,31 µM,"CC(=O)N1CCC[C@]12CC=CCCCC1(CCCC=CCCCCCC[C@@](C)(C(=O)N[C@@H](Cc3ccccc3)C(=O)N[C@@H](Cc3csc4ccccc34)C(=O)N[C@@H](CCC(N)=O)C(N)=O)NC(=O)[C@H](CC(N)=O)NC(=O)[C@H](Cc3ccccc3)NC(=O)[C@H](C)NC(=O)[C@H](C)NC(=O)[C@H](CCC(=O)O)NC(=O)[C@H](CC(=O)O)NC1=O)NC(=O)[C@H](C)NC(=O)[C@H](CNS(C)(=O)=O)NC2=O (stereo partly drawn) [I-534, Ac-PL3-[MeSO2]Dap-Ala-B5-Asp-Glu-Ala-Ala-Phe-Asn-S8-Phe-BztA-Gln-NH2]"
,5000 nM,,,2.86,47 µM,"CC(=O)N1CCC[C@]12CC=CCCCC1(CCCC=CCCCCCC[C@@](C)(C(=O)N[C@@H](Cc3ccccc3)C(=O)N[C@@H](Cc3csc4ccccc34)C(=O)N[C@@H](CCC(N)=O)C(N)=O)NC(=O)[C@H](C(C)C)NC(=O)[C@H](Cc3ccccc3)NC(=O)[C@H](C)NC(=O)[C@H](C)NC(=O)[C@H](CC(=O)O)NC(=O)[C@H](CC(=O)NC(C)C)NC1=O)NC(=O)[C@H](C)NC(=O)[C@H](CC(=O)O)NC2=O (stereo partly drawn) [I-535, Ac-PL3-Asp-Ala-B5-[NHiPr]AsnR-Asp-Ala-Ala-Phe-Val-S8-Phe-BztA-Gln-NH2]"
,4470 nM,,,2.75,23 µM,"CCNC(=O)C[C@@H]1NC(=O)C2(CCCC=CCCCCCC[C@@](C)(C(=O)N[C@@H](Cc3ccccc3)C(=O)N[C@@H](Cc3csc4ccccc34)C(=O)N[C@@H](CCC(N)=O)C(N)=O)NC(=O)[C@H](C(C)C)NC(=O)[C@H](Cc3ccccc3)NC(=O)[C@H](C)NC(=O)[C@H](C)NC(=O)[C@H](CC(=O)O)NC1=O)CCCC=CC[C@]1(CCCN1C(C)=O)C(=O)N[C@@H](CC(=O)O)C(=O)N[C@@H](C)C(=O)N2 (stereo partly drawn) [I-536, Ac-PL3-Asp-Ala-B5-[NHEt]AsnR-Asp-Ala-Ala-Phe-Val-S8-Phe-BztA-Gln-NH2]"
,5000 nM,,,2.87,11 µM,"CCCNC(=O)C[C@@H]1NC(=O)C2(CCCC=CCCCCCC[C@@](C)(C(=O)N[C@@H](Cc3ccccc3)C(=O)N[C@@H](Cc3csc4ccccc34)C(=O)N[C@@H](CCC(N)=O)C(N)=O)NC(=O)[C@H](C(C)C)NC(=O)[C@H](Cc3ccccc3)NC(=O)[C@H](C)NC(=O)[C@H](C)NC(=O)[C@H](CC(=O)O)NC1=O)CCCC=CC[C@]1(CCCN1C(C)=O)C(=O)N[C@@H](CC(=O)O)C(=O)N[C@@H](C)C(=O)N2 (stereo partly drawn) [I-537, Ac-PL3-Asp-Ala-B5-[NHnPr]AsnR-Asp-Ala-Ala-Phe-Val-S8-Phe-BztA-Gln-NH2]"
,5000 nM,,,2.75,33 µM,"CC(=O)N1CCC[C@]12CC=CCCCC1(CCCC=CCCCCCC[C@@](C)(C(=O)N[C@@H](Cc3ccccc3)C(=O)N[C@@H](Cc3csc4ccccc34)C(=O)N[C@@H](CCC(N)=O)C(N)=O)NC(=O)[C@H](C(C)C)NC(=O)[C@H](Cc3ccccc3)NC(=O)[C@H](C)NC(=O)[C@H](C)NC(=O)[C@H](CC(=O)O)NC(=O)[C@H](CC(=O)NC3CC3)NC1=O)NC(=O)[C@H](C)NC(=O)[C@H](CC(=O)O)NC2=O (stereo partly drawn) [I-538, Ac-PL3-Asp-Ala-B5-[NHCyPr]AsnR-Asp-Ala-Ala-Phe-Val-S8-Phe-BztA-Gln-NH2]"
,5000 nM,,10 µM,2.94,,"CC(=O)N1CCC[C@]12CC=CCCCC1(CCCC=CCCCCCC[C@@](C)(C(=O)N[C@@H](Cc3ccccc3)C(=O)N[C@@H](Cc3csc4ccccc34)C(=O)N[C@@H](CCC(N)=O)C(N)=O)NC(=O)[C@H](C(C)C)NC(=O)[C@H](Cc3ccccc3)NC(=O)[C@H](C)NC(=O)[C@H](C)NC(=O)[C@H](CC(=O)O)NC(=O)[C@H](CC(=O)NC3CCC3)NC1=O)NC(=O)[C@H](C)NC(=O)[C@H](CC(=O)O)NC2=O (stereo partly drawn) [I-539, Ac-PL3-Asp-Ala-B5-[NHCyBu]AsnR-Asp-Ala-Ala-Phe-Val-S8-Phe-BztA-Gln-NH2]"
2.087,180 nM,180 nM,50 µM,,,"CO[C@H](C)[C@@H]1NC(=O)[C@H](CC(=O)O)NC(=O)[C@]2(CC=CCCCC3(CCCC=CCCCCCC[C@@](C)(C(=O)N[C@@H](Cc4ccccc4)C(=O)N[C@@H](Cc4csc5ccccc45)C(=O)N[C@@H](CCC(N)=O)C(N)=O)NC(=O)[C@H](CCC(N)=O)NC(=O)[C@H](Cc4ccccc4)NC(=O)[C@H](C)NC(=O)[C@H](C)NC(=O)[C@H](CCC(=O)O)NC(=O)[C@H](CC(=O)O)NC3=O)NC1=O)CCCN2C(C)=O (stereo partly drawn) [I-541, Ac-PL3-Asp-TOMe-B5-Asp-Glu-Ala-Ala-Phe-Gln-S8-Phe-BztA-Gln-NH2]"
2.135,109 nM,109 nM,39 µM,,,"CO[C@H](C)[C@@H]1NC(=O)[C@H](CC(=O)O)NC(=O)[C@]2(CC=CCCCC3(CCCC=CCCCCCC[C@@](C)(C(=O)N[C@@H](Cc4ccccc4)C(=O)N[C@@H](Cc4csc5ccccc45)C(=O)N[C@@H](CCC(N)=O)C(N)=O)NC(=O)[C@H](CCC(N)=O)NC(=O)[C@H](Cc4ccccc4)NC(=O)[C@H](C)NC(=O)[C@H](C)NC(=O)[C@H](CCC(=O)O)NC(=O)[C@H](CC(=O)O)NC3=O)NC1=O)CCCN2C(C)=O (stereo partly drawn) [I-542, Ac-PL3-Asp-TOMe-B5-Asp-Glu-Ala-Ala-Phe-Gln-S8-Phe-BztA-Gln-NH2]"
2.278,45 nM,45 nM,50 µM,,,"CC[C@H](C)[C@@H]1NC(=O)[C@H](CC(=O)O)NC(=O)[C@]2(CC=CCCCC3(CCCC=CCCCCCC[C@@](C)(C(=O)N[C@@H](Cc4ccsc4)C(=O)N[C@@H](Cc4csc5ccccc45)C(=O)N[C@@H](CCC(N)=O)C(N)=O)NC(=O)[C@H](CC(N)=O)NC(=O)[C@H](Cc4ccccc4)NC(=O)[C@H](C)NC(=O)[C@H](C)NC(=O)[C@H](CC(=O)O)NC(=O)[C@H](CC(=O)O)NC3=O)NC1=O)CCCN2C(C)=O (stereo partly drawn) [I-551, Ac-PL3-Asp-Ile-B5-Asp-Asp-Ala-Ala-Phe-Asn-S8-3Thi-BztA-Gln-NH2]"
2.457,27.5 nM,27.5 nM,35 µM,,,"CC[C@H](C)[C@@H]1NC(=O)[C@H](CC(=O)O)NC(=O)[C@]2(CC=CCCCC3(CCCC=CCCCCCC[C@@](C)(C(=O)N[C@@H](Cc4ccccc4OC)C(=O)N[C@@H](Cc4csc5ccccc45)C(=O)N[C@@H](Cc4c[nH]cn4)C(N)=O)NC(=O)[C@H](CC(N)=O)NC(=O)[C@H](Cc4ccccc4)NC(=O)[C@H](C)NC(=O)[C@H](C)NC(=O)[C@H](CC(=O)O)NC(=O)[C@H](CC(=O)O)NC3=O)NC1=O)CCCN2C(C)=O (stereo partly drawn) [I-554, Ac-PL3-Asp-Ile-B5-Asp-Asp-Ala-Ala-Phe-Asn-S8-2OMeF-BztA-His-NH2]"
